# Measurements: patent US4882349A, “Pyrrolacetic amides having antiinflammatory activity” (priority 1982, dated 1989)
# Assays:
# [1] = tested on: phenyl-p-quinone-induced writhing (abdominal contractions); assay: phenylquinone-induced writhing test (analgesic activity), compound given 30 min before phenyl-p-quinone; type: in vivo, male Wistar rats; details: 10 mg/Kg per os
# Experimental: Male Wistar rats weighing 110±5 g were caged for 10 days at 22±1° C. and given a balanced diet with free access to water. Twenty-four hours before the experiment the animals were randomized into groups of 10 and fasted for 14 hours but with free access to water. Each dose was tested in 3 groups of rats. Thirty minutes following administration either orally or parenterally of the products to be tested and the vehicle alone (0.5% carboxymethyl-cellulose in physiological saline) in the control animals, each rat was given 2 ml of a 5% absolute ethanol aqueous solution containing 0.36% of phenyl-p-quinone (Sigma Chemical Company) in order to provoke writhings. Fifteen minutes after administration of phenyl-p-quinone the number of contractions were counted for 20 minutes. The inhibiting effect of the compounds under examination on the abdominal contractions induced by phenyl-p-quinone was calculated by the following formula: % protection= [formula]
# Table V lists the tested compounds, doses, routes of administration and their efficacy expressed as percentage of protection, taking into account that phenyl-p-quinone was administered thirty minutes after the compounds.
# [2] = tested on: carrageenin-induced oedema; assay: carrageenin-induced oedema test (anti-inflammatory activity); type: in vivo, albino male Wistar rats
# Experimental: This effect was evaluated by means of an experimental model reproducing acute inflammation: for this purpose the carrageenin- induced oedema test was employed following the method described by C.
# Albino male Wistar rats weighing 140-160 g were caged for 10 days at 22±1° C. and given a balanced diet and water ad libitum. Eighteen hours before the experiment the animals were randomized into groups of ten and fasted but with free access to water. Each dose was tested in three groups of rats. Each compound was given either orally, by gavage, or parenterally--intraperitoneal injection--administering as follows:
# controls: 0.5% carboxymethylcellulose suspension in physiological saline, 10 ml/kg
# treated: suspension of the compounds to be tested in the same vehicle and at the same volume (10 ml/kg) used for the controls at the doses specified below.
# One hour after administration of the compounds and vehicle, in order to provoke the oedema for determining the protective effect of the substances under examination, each rat received, by subcutaneous injection into the plantar surface of the left paw, 0.1 ml of 1% sterile carrageenin suspension.
# [3] = tested on: cough provoked by mechanical stimulation of the tracheal bifurcation mucosa; assay: antitussive activity, mechanically provoked coughing; type: in vivo, albino Guinea-pigs; details: 1 h after administration
# Experimental: The antitussive effect on albino Guinea-pigs weighing 300 g was evaluated using the method described by Y. Kase (Selected Pharmacological Testing Methods, p.363, Marcel Dekker Inc., New York, 1968). Each dose was tested in a group of animals with a Y cannula inserted into the trachea. In order to provoke coughing, the mucosa of the tracheal bifurcation was mechanically stimulated by insertion of a wild boar's hair through an opening in the cannula, while the other opening was connected to a kymograph to plot the amplitude and/or frequency. The reduction in the number of coughs was evaluated at one hour after administration of the compounds under examination by following the plottings for twenty minutes and comparing the response of the control animals.
# [4] = tested on: mucus secreted by the respiratory airway; assay: antisecretory activity, respiratory mucus secretion; type: in vivo, albino male New Zealand rabbits; details: vs control group
# Experimental: The experiment was carried out in accordance with the method described by Y. Kase (Folia Pharmacol. Jap. 73: 605, 1977) for the purpose of investigating whether or not the compounds under examination determine changes in the volume of the mucus secreted by the respiratory airway. Groups of four albino male New Zealand rabbits (mean weight: 2.5 kg) were used for testing each dose per single group. The animals were anesthetized with urethane (1.1 g/ks b.w.) via the intraperitoneal route and a Y cannula was inserted into the trachea. In order to stimulate mucous secretion a humidifier was connected to the cannula permitting the animals to spontaneously breathe air with 100% humidity at a constant temperature of 39° C. The secreted mucus was collected through another opening in the cannula and measured at three and six hours after administration of the compounds under examination or of the vehicle alone administered in the order of […] (controls). Calculation of the increase or decrease in mucous secretion was based upon the percentage differences between the groups treated with the compounds under examination and the control group. Table VII gives the percentage differences in mucous secretion, and the tested compounds with relative doses and routes of administration.
smiles,measurement,setting,value
"Cc1ccc(C(=O)c2ccc(CC(=O)O)n2C)cc1 [Tolmetin Na.2H2 O, 1-methyl-5-p-toluoylpyrrole-2-acetic acid, reference compound]",% Protection,[1],40.0%
same,oedema % inhibition,"[2]; 10 mg/Kg per os, 2 h",44.8%
same,oedema % inhibition,"[2]; 10 mg/Kg per os, 4 h",29.2%
same,oedema % inhibition,"[2]; 10 mg/Kg per os, 6 h",10.2%
same,oedema % inhibition,"[2]; 10 mg/Kg per os, 24 h",0.0%
same,oedema % inhibition,"[2]; 10 mg/Kg per os, 48 h",0.0%
same,oedema % inhibition,"[2]; 10 mg/Kg per os, 72 h",0.0%
same,oedema % inhibition,"[2]; 10 mg/Kg, Table IV (route not given), 2 h",46.0%
same,oedema % inhibition,"[2]; 10 mg/Kg, Table IV (route not given), 4 h",39.1%
same,oedema % inhibition,"[2]; 10 mg/Kg, Table IV (route not given), 6 h",20.0%
same,oedema % inhibition,"[2]; 10 mg/Kg, Table IV (route not given), 24 h",0.0%
same,oedema % inhibition,"[2]; 10 mg/Kg, Table IV (route not given), 48 h",0.0%
same,oedema % inhibition,"[2]; 10 mg/Kg, Table IV (route not given), 72 h",0.0%
same,oedema % inhibition,"[2]; 50 mg/Kg per os, 2 h",48.0%
same,oedema % inhibition,"[2]; 50 mg/Kg per os, 4 h",55.3%
same,oedema % inhibition,"[2]; 50 mg/Kg per os, 6 h",55.2%
same,oedema % inhibition,"[2]; 50 mg/Kg per os, 24 h",0.0%
same,oedema % inhibition,"[2]; 50 mg/Kg per os, 48 h",0.0%
same,oedema % inhibition,"[2]; 50 mg/Kg per os, 72 h",0.0%
same,oedema % inhibition,"[2]; 50 mg/Kg, Table IV (route not given), 2 h",53.8%
same,oedema % inhibition,"[2]; 50 mg/Kg, Table IV (route not given), 4 h",60.0%
same,oedema % inhibition,"[2]; 50 mg/Kg, Table IV (route not given), 6 h",58.4%
same,oedema % inhibition,"[2]; 50 mg/Kg, Table IV (route not given), 24 h",0.0%
same,oedema % inhibition,"[2]; 50 mg/Kg, Table IV (route not given), 48 h",0.0%
same,oedema % inhibition,"[2]; 50 mg/Kg, Table IV (route not given), 72 h",0.0%
same,oedema % inhibition,"[2]; 100 mg/Kg per os, 2 h",50.8%
same,oedema % inhibition,"[2]; 100 mg/Kg per os, 4 h",57.3%
same,oedema % inhibition,"[2]; 100 mg/Kg per os, 6 h",54.8%
same,oedema % inhibition,"[2]; 100 mg/Kg per os, 24 h",9.7%
same,oedema % inhibition,"[2]; 100 mg/Kg per os, 48 h",7.8%
same,oedema % inhibition,"[2]; 100 mg/Kg per os, 72 h",0.0%
same,oedema % inhibition,"[2]; 100 mg/Kg, Table IV (route not given), 2 h",57.0%
same,oedema % inhibition,"[2]; 100 mg/Kg, Table IV (route not given), 4 h",66.0%
same,oedema % inhibition,"[2]; 100 mg/Kg, Table IV (route not given), 6 h",67.1%
same,oedema % inhibition,"[2]; 100 mg/Kg, Table IV (route not given), 24 h",8.7%
same,oedema % inhibition,"[2]; 100 mg/Kg, Table IV (route not given), 48 h",2.0%
same,oedema % inhibition,"[2]; 100 mg/Kg, Table IV (route not given), 72 h",0.0%
same,"% inhibition, cough amplitude",[3]; 50 mg/Kg i.p.,0%
same,"% inhibition, cough frequency",[3]; 50 mg/Kg i.p.,0%
same,"% inhibition, cough amplitude",[3]; 50 mg/Kg per os,0%
same,"% inhibition, cough frequency",[3]; 50 mg/Kg per os,0%
same,"% inhibition, cough amplitude",[3]; 75 mg/Kg i.p.,0%
same,"% inhibition, cough frequency",[3]; 75 mg/Kg i.p.,10%
same,"% inhibition, cough amplitude",[3]; 75 mg/Kg per os,7%
same,"% inhibition, cough frequency",[3]; 75 mg/Kg per os,0%
same,"% inhibition, cough amplitude",[3]; 100 mg/Kg i.p.,7%
same,"% inhibition, cough frequency",[3]; 100 mg/Kg i.p.,10%
same,"% inhibition, cough amplitude",[3]; 100 mg/Kg per os,5%
same,"% inhibition, cough frequency",[3]; 100 mg/Kg per os,5%
same,% difference in mucus secretion,"[4]; 50 mg/Kg i.p., 3 h",+3%
same,% difference in mucus secretion,"[4]; 50 mg/Kg i.p., 6 h",+7%
same,% difference in mucus secretion,"[4]; 50 mg/Kg per os, 3 h",+5%
same,% difference in mucus secretion,"[4]; 50 mg/Kg per os, 6 h",+10%
same,% difference in mucus secretion,"[4]; 75 mg/Kg i.p., 3 h",+8%
same,% difference in mucus secretion,"[4]; 75 mg/Kg i.p., 6 h",+10%
same,% difference in mucus secretion,"[4]; 75 mg/Kg per os, 3 h",0.0%
same,% difference in mucus secretion,"[4]; 75 mg/Kg per os, 6 h",+2%
same,% difference in mucus secretion,"[4]; 100 mg/Kg i.p., 3 h",+7%
same,% difference in mucus secretion,"[4]; 100 mg/Kg i.p., 6 h",0.0%
same,% difference in mucus secretion,"[4]; 100 mg/Kg per os, 3 h",+5%
same,% difference in mucus secretion,"[4]; 100 mg/Kg per os, 6 h",0.0%
